Experimental data: patent US20140249143A1, “Compounds And Methods For Enhancing Innate Immune Responses” (GlaxoSmithKline LLC, priority 2011, published 2014)

What was measured:
[1] = test system: reconstructed human epidermis (RHE) keratinocytes; assay: JAK/STAT induction in reconstructed human epidermis (western blot, real-time PCR); format: cell-based; conditions: 10 μM (IFN-alpha 100 U/mL), 6 and 72 hrs
Protocol: First, reconstructed human epidermis (“RHE”) consisting of cultured human keratinocyte cells were incubated in triplicate with media containing either the media alone, media+0.1% DMSO, media containing 10 μM of several putative JAK/STAT activator compounds described herein in Tables 1 and 2 (Example 1, Example 2, Example 11, and compound no. 89 (as a negative control)), or media containing 100 U/mL of a positive control Interferon-alpha (IFN-alpha) recombinant protein at 37° C. in a humidified atmosphere containing 5% CO2, for 6 and 72 hours.
At the end of the incubation period, the RHE tissues were cut into two sections. One section was ¼ of the total size and the second section was […].

[2] = test system: HCV genotype 1b subgenomic replicon; assay: Anti-Hepatitis C replicon assay, genotype 1b (luciferase); format: cell-based; conditions: Hepatitis C virus; luciferase activity measured 48 hours later; read-out: HCV Genotype 1B Replicon pEC50 (converted)
How it was run: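 The 1b line is ET cells carrying the I389luc-ubi-neo/NS3-3′/ET replicon with adaptive mutations E1202G, T1280I and K1846T; the 1a line is an Apath replicon line modified with firefly luciferase. Cells were exposed 48 h to compound (final 0.03 pM–50 μM, 0.5-1% DMSO), read by Steady-Glo luciferase, and IC50 came from 10-point four-parameter logistic fits; cytotoxicity was read by CellTiter-Glo.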

[3] = test system: HCV replication in 1b HCV replicon cells; assay: siRNA knockdown of JAK/STAT pathway factors in 1b HCV replicon cells; format: cell-based, Hepatitis C virus; conditions: 2 μM, 30 h, 50 nM siRNA
Protocol: 50 nM of siRNA against each gene (Dharmacon, on-target SMART pool: L-020209-00-0005 (IFNAR1), L-015411-00-0005 (IFNAR2), L-007981-00-0005 (IL28RA), L-007926-00-0005 (IL10RB), L-011-57-00-0005(IFNGR1), L-012713-00-0005 (IFNGR2), L-003145-00-0005 (JAK1), L-003146-00-0005 (JAK2), L-003182-00-0005 (Tyk2), L-003147-00-0 005 (JAK3), L-003543-00-0005 (STAT1), L-012064-00-0005 (STAT2)) was transfected in the 1b HCV replicon cells using lipofectamine RNAiMax™ (Invitrogen) according to the manufacturer's protocol. A scrambled irrelevant smart pool control siRNA was included as a control (IRR). After 3 days post transfection, the cells were treated with DMSO, IFNα (5 U/ml), IFNγ (100 U/ml), and Example 1 (2 μM) in triplicate for 30 h. The cells were harvested with Bright-Glo (Promega) and the HCV replication was measured by luminescence. […] To measure the efficiency of the knockdown, total RNA was harvested from the siRNA-transfected cells at day 3 post transfection and analyzed by real time RT-PCR.

SMILES: FC(F)(F)c1cc(C(F)(F)F)c2ccc3nc(-c4nnco4)cn3c2n1 [Compound 1, 2-[2,4-bis(trifluoromethyl)imidazo[1,2-a]1,8-naphthyridin-8-yl]-1,3,4-oxadiazole]
- Stat1 phosphorylation (western blot) [1]: Stat1 phosphorylation
- EC50 [2]: 200 nM
- antiviral activity after knockdown of IFNAR2, JAK1, STAT1, or STAT2 [3]: affected the antiviral activity
- antiviral activity after knockdown of JAK1 [3]: fully abolished
- antiviral activity after knockdown of other Janus kinases (JAKs) [3]: did not show any effect
